Assay [1] addresses T1, human NCX1 (Homo sapiens, UniProt P32418).
T1 construct: expressed in transfected cells
As to the kind of experiment: NCX1 inhibition, forward mode (Ca2+ efflux out of cells), FLIPR calcium assay. Format: cell-based. To be noted: CHO cells stably expressing human NCX1, read-out: NCX1fw IC50. The source says: The sodium/calcium exchanger NCX1 can transport calcium ions and sodium ions through the cell membrane. The transport is an exchange of Ca^2+ and Na^+ in two directions depending on membrane potential and ion gradients. At the first direction, named “forward mode” or “calcium export mode”, Ca^2+ is transported out of the cell and Na^+ is transported into the cell. At the other direction, named “reverse mode” or “calcium import mode”, the transport directions are vice versa. The effect of the compounds of the invention on NCX1 was determined in CHO cells stably expressing human NCX1 (gene symbol SLC8A1; cf. WO 2009/115238). The assay is based on the monitoring of intracellular Ca^2+ concentrations using a calcium-sensitive fluorescence dye which is detected by means of a FLIPR device (Fluorimetric Imaging Plate Reader, Molecular Devices).
The assay is based on the monitoring of intracellular Ca^2+ concentrations using the PBX Calcium Assay Kit from BD (Becton, Dickinson and Company) with calcium indicator dye 51-9000177BKa (BD, 640177). CHO cells expressing NCX1 were loaded with the dye, and after a preincubation period with the test compound, Ionomycin (Calbiochem, 407950) was added. Ionomycin is an ionophor for Ca^2+ ions mediating an increase of intracellular Ca^2+ ions. Consequently, intracellular Ca^2+ ions are exchanged against extracellular Na^+ ions (Ca^2+ efflux, forward mode). The decrease of intracellular Ca^2+ ions was detected by measuring the fluorescence of the calcium indicator dye at a wavelength of 520 nm by a FLIPR device.
Briefly, similarly as for the reverse mode, for the forward mode transport assay 18000 cells per well were seeded into a 96 well microplate (Corning COSTAR 3904) and incubated overnight in culture medium (cf. above). A total volume of 100 μl medium per well was used. For the preparation of the FLIPR assay, the culture medium was removed from the plates and 100 μl of assay buffer (133.8 mM NaCl (Sigma, S5886); 4.7 mM KCl (Sigma, P3911); 1.25 mM MgCl2 (Merck, 1.05833.0250); 3.5 mM CaCl2(Merck, 1.02083.0250); 5 mM glucose (Sigma, G7021); 10 mM Hepes (Sigma, H4034); pH 7.4)) were added to each well in a washing step. Assay buffer was removed, and 100 μl of a solution of the test compound in assay buffer in different concentrations were added into the wells. Further, 100 μl of dye solution (0.09% (v/v) calcium indicator dye, 9.1% (v/v) signal enhancer (from PBX Calcium Assay Kit); in assay buffer) were added into each well. The plates were incubated in the dark at room temperature for 60 min. Meanwhile a 10 μM solution of Ionomycin in assay buffer (additionally containing 0.05% fetal calf serum (cf. above); 4° C.) was prepared and stored in the wells of a 96 well microplate (96 well microplate, polypropylene, U-shape (Greiner Bio-One, 650201)). The fluorescence monitoring was performed at 60 measuring points with measurement intervals of 2 sec. After the fifth measuring point, 50 μl of the Ionomycin solution were added to each well of the assay plate to give a final Ionomycin concentration of 2 μM. For the determination of the IC50 values the minimal fluorescence value was subtracted from the maximal fluorescence value for the fifteenth to fifty-fifth measuring points. The calculation of the IC50 values via the percentage inhibitions of Ca^2+ efflux out of cells (forward mode) effected by the test compound was performed in Biost@t Speed 2.0. “NCX1fw IC50” in Table 2 means the IC50 value for inhibition of NCX1 in forward mode (in μM (micromol/liter)).

Assay [2] addresses T1, human NCX1. As to the kind of experiment: NCX1 inhibition, reverse mode (Ca2+ influx into cells), FLIPR Fluo-4 assay. Format: cell-based. To be noted: inhibition of NCX1 in reverse mode (Ca2+ influx into cells); read-out: NCX1rv IC50. Put shortly: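 CHO cells stably expressing human NCX1 were loaded with 2 µM Fluo-4 AM for 80 min at room temperature, then preincubated with compound for 45 min at 16 °C in pH 7.4 HEPES buffer (3.5 mM CaCl2, 2.5 mM probenecid). Reverse-mode Ca2+ influx was triggered by 20 µM final gramicidin and read at 520 nm on FLIPR. IC50 came from % inhibition of max−min fluorescence.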

For orientation: IC50 means the concentration at which inhibition is half-maximal.

Each structure is given as a SMILES string.

Consider `Cc1ccccc1C1CCc2cc(Oc3ncc(CNC(=O)c4ccno4)s3)ccc2O1` (stereo not shown) [Example 329, Isoxazole-5-carboxylic acid [2-(2-o-tolyl-chroman-6-yloxy)-thiazol-5-ylmethyl]-amide], for which the IC50 is 2500 nM in assay [1] and 600 nM in assay [2].
The corresponding values for `Cc1ccccc1C1CCc2cc(Oc3ncc(C(=O)NCCO)s3)ccc2O1` (stereo not shown) [Example 299, 2-(2-o-Tolyl-chroman-6-yloxy)-thiazole-5-carboxylic acid (2-hydroxy-ethyl)-amide] are 600 nM and 400 nM.
